Usually solubility stands for the concentration that dissolves in the medium under given conditions. A low value points to little dissolved substance. In general, IC50 refers to the point on the concentration scale where inhibition reaches its midpoint. A high value points to weaker potency. By bioavailability is commonly meant dose-corrected exposure relative to a reference, in per cent.

≈ marks a conversion by molar mass, not a printed value.

We go through 3 compounds from US7691875B2, “Imidazopyridine compounds, processes for their preparation and therapeutic uses thereof” (AstraZeneca AB, priority 2003, dated 2010).

Series [1] can be described thus: Solubility in Fasted State Simulated Intestinal Fluid (FaSSIF). The format is physicochemical. Conditions: thermodynamic from solid, FaSSIF pH 6.5, 37° C., measured after 24 hours. Here is the method:
Solubility in Fasted State Simulated Intestinal Fluid (FaSSIF)
The method describes a procedure to measure solubility of solid material in PaSSIF (Fasted State Simulated Intestinal Fluid). The FaSSIF solution is an isotonic phosphate buffer where pH is adjusted to 6.5 to reflect pH in the jejunum. Taurocholic acid and lecithin is added to a concentration of 3 mmol/l and 0.75 mmol/l respectively.
1 mg of solid material, i.e. of the compound of invention, is added to 1 ml FaSSIF solution and equilibrated at 37° C. Samples are withdrawn after 1 and 24 hours. The samples are transferred to eppendorf tubes and spun at 10000 G and 37° C. for 10 minutes. A suitable volume of the supernatant is removed and diluted to a suitable concentration. The concentrations of the compounds in the samples are analysed with LC/UV/MS.

In series [2] the test system is isolated rabbit gastric glands. Nature of the series: Acid secretion inhibition in isolated rabbit gastric glands. The class given is cell-based. The note with it: Oryctolagus cuniculus, in vitro. The procedure: Acid Secretion Inhibition in Isolated Rabbit Gastric Glands
Inhibiting effect on acid secretion in vitro in isolated rabbit gastric glands was measured as
described by Berglindh et al. (1976) Acta Physiol. Scand. 97, 401-414.

The next series has as its target H+,K+-ATPase (Homo sapiens, UniProt P20648). Nature of the series: Determination of H+,K+-ATPase activity (membrane vesicles, phosphate release). The note with it: 15 min, 37° C., pH 7.4, 10 mM KCl, 2 mM ATP. The format is biochemical. The procedure:
Detennination of H^+,K^+-ATPase Activity
Membrane vesicles (2.5 to 5 μg) were incubated for 15 min at +37° C. in 18 mM Pipes/Tris buffer pH 7.4 containing 2 mM MgCl2, 10 mM KCl and 2 mM ATP. The ATPase activity was estimated as release of inorganic phosphate from ATP, as described by LeBel et al. (1978) Anal. Biochem. 85, 86-89.

Series [3] can be described thus: Bioavailability in the conscious dog. The format is in vivo. The note with it: plasma. Here is the method: Bioavailabiity is assessed by calculating the quotient between the area under blood/plasma concentration (AUC) curve following (i) intraduodenal (i.d.) or oral (p.o.) administration and (ii) intravenous (i.v.) administration from the rat or the dog, respectively.
The area under the blood concentration vs. time curve, AUC, is determined by the log/linear trapezoidal rule and extrapolated to infinity by dividing the last determined blood concentration by the elimination rate constant in the terminal phase. The systemic bioavailability (F%) following intraduodenal or oral administration is calculated as F(%)=(AUC (p.o. or i.d.)/AUC (i.v.))×100.
(§1) Inhibition of Gastric Acid Secretion and Bioavailability in the Conscious Dog.
Blood samples for the analysis of test compound concentration in plasma are taken at intervals up to 4 h after dosing. Plasma is separated and frozen within 30 min after collection and later analyzed. The systemic bioavailability (F%) after oral or i.d. administration is calculated as described above in the rat model.

Series [4] concerns histamine-stimulated acid secretion. Nature of the series: Inhibition of histamine-stimulated gastric acid secretion in the conscious Heidenhain pouch dog. The format is in vivo. Conditions: 1-3 hours after dosing, mean n=2. Here is the method:
as §1
Labrador retriever or Harrier dogs of either sex are used. They are equipped with a duodenal fistula for the administration of test compounds or vehicle and a cannulated gastric fistula or a Heidenhaim-pouch for the collection of gastric secretion.
Before secretory tests the animals are fasted for about 18 h but water is freely allowed. Gastric acid secretion is stimulated for up to 6.5 h infusion of histamine dihydrochloride (12 ml/h) at a dose producing about 80 % of the individual maximal secretory response, and gastric juice collected in consecutive 30-min fractions. Test substance or vehicle is given orally, i.d. or i.v., 1 or 1.5 h after starting the histamine infusion, in a volume of 0.5 ml/kg body weight. In the case of oral administration, it should be pointed out that the test compound is administered to the acid secreting main stomach of the Heidenham-pouch dog.
The acidity of the gastric juice samples are determined by titration to pH 7.0, and the acid output calculated. The acid output in the collection periods after administration of test substance or vehicle are expressed as fractional responses, setting the acid output in the fraction preceding administration to 1.0. Percentage inhibition is calculated from fractional responses elicited by test compound and vehicle.

Chain of H+,K+-ATPase (P20648 whole entry): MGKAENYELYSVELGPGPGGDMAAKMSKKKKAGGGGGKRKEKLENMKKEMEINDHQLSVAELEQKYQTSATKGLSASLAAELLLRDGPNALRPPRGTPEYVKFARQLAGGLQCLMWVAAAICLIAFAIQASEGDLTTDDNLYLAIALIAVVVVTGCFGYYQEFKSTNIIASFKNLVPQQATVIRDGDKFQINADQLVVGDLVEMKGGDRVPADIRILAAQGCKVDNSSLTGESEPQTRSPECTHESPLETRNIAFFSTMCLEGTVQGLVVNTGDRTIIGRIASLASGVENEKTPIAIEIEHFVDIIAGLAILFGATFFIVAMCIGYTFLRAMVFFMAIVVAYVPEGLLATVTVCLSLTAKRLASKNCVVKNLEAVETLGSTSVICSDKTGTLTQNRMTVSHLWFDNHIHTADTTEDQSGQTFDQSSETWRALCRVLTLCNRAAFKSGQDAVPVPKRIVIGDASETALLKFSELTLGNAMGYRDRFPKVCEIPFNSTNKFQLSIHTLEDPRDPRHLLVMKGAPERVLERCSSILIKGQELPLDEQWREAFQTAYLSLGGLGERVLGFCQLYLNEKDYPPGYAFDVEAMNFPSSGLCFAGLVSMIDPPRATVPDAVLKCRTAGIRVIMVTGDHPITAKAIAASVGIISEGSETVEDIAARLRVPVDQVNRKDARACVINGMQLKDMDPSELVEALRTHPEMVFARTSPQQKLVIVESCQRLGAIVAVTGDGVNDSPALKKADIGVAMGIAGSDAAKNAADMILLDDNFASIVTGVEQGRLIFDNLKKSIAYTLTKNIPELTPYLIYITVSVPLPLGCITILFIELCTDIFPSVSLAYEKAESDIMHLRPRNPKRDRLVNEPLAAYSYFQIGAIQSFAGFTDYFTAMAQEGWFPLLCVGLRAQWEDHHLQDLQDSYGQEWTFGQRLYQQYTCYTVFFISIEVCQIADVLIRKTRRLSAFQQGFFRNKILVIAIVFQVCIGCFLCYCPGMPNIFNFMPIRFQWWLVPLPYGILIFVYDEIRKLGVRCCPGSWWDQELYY
Chain of H+,K+-ATPase (P51164 whole entry partner): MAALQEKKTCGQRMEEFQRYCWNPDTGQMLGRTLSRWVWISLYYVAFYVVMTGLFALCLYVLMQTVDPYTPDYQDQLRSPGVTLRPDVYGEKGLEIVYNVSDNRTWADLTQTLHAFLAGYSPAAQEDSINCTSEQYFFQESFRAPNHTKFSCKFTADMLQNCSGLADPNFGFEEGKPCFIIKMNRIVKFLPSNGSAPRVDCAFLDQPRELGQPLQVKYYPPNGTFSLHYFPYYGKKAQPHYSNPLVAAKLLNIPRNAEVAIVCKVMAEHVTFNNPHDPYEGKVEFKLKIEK

In series [1], `CS(=O)(=O)O.Cc1cccc(C)c1CNc1cc(C(=O)NC[C@H](C)O)cn2c(C)c(C)nc12` [8-[(2,6-dimethylbenyl)amino]-N-[(2S)-2-hydroxypropyl]-2,3-dimethylimidazo[1,2-a]pyridine-6-carboxamide mesylate salt] gave a solubility at 24 h of 218 µM.

Turning to `Cc1cccc(C)c1CNc1cc(C(=O)NCCO)cn2c(C)c(C)nc12` [8-[(2,6-dimethylbenzyl)amino]-N-(2-hydroxyethyl)-2,3-dimethylimidazo[1,2-a]pyridine-6-carboxamide, reference compound], the IC50 in series [2] stood at 280 nM; against H+,K+-ATPase, 750 nM. Besides, the bioavailability in series [3] was 61%.

Turning to `Cc1cccc(C)c1CNc1cc(C(=O)NC[C@H](C)O)cn2c(C)c(C)nc12` [compound of the invention, 8-[(2,6-dimethylbenzyl)amino]-N-[(2S)-2-hydroxypropyl]-2,3-dimethylimidazo[1,2-a]pyridine-6-carboxamide], the IC50 in series [2] was determined as 260 nM; against H+,K+-ATPase, 690 nM. Also, the “mean percentage inhibition of histamine-stimulated acid secretion” value in series [4] came out at 91%. In addition, the concentration in solution in series [1] (solubility at 24 h) was 48 µM (≈ 18.3 µg/mL).
